Measured values from US6444850B1, “Fungicidial compounds having a fluorovinyloxphyenyl moiety and process for the preparation thereof” (priority 1997, dated 2002).

Tests used:
[1] = test system: Pyricularia oryzae Carvara KA301; format: in vivo; conditions: for C. V. (%) RCB: 50 ppm, control value, rice blast; for C. V. (%) Fungicidal Activities against RCB at 10 ppm / C. V. (%) Fungicidal Activities against RCB at 10 ppm (TABLE 6): sprayed on Nakdong rice plant, control value from lesion area
Botrytis cinerae = assay: Fungicidal activity against cucumber gray mold rot (CGM) disease; format: in vivo; conditions: 50 ppm, control value
Method: Botrytis cinerae, which was isolated from cucumber infected thereby, was inoculated on a PDA agar medium and cultured under a 12L/12D cycle at 25° C. for 15 days to form spore. The spores were scraped, filtered through a gauze and then suspended in potato dextrose liquid medium at a concentration of 1×10^6 spore/ml. The spore suspension was sprayed on a cucumber plant having one leaf. The cucumber plant was held in a humidified room at 20° C. for 3 days. L.A. on a leaf was measured to calculate an C.V.

Phytophthora infestans = format: in vivo; conditions: 50 ppm; control value, tomato late blight
Puccinia recondita = assay: Fungicidal activity against wheat leaf rust (WLR) disease; format: in vivo; conditions: for C. V. (%), Fungicidal Activities against WLB at 10 ppm: Table 8 (Test Example 5); for C. V. (%) WLR: 50 ppm, control value, wheat leaf rust
Erysiphae graminis = assay: Fungicidal activity against barley powdery mildew (BPM) disease; format: in vivo; conditions: for C. V. (%), Fungicidal activities against TLB at 10 ppm: Table 9 (Test Example 6); for C. V. (%) BPM: 50 ppm, control value, barley powdery mildew
Method: Erysiphae graminis was subcultured on a wheat plant in a laboratory. 15 g of barley seeds was sowed in a pot (diameter 6.5 cm) and cultured in a greenhouse for 7 days to obtain a barley plant having only a primary leaf. The barley plant was inoculated with spores by shaking thereover another plant infected by BPM. The inoculated barley plant was cultured in an incubator maintained at a temperature of 22 to 24° C. and a relative humidity of 50% for 7 days to induce BPM. L.A. on the leaf was measured to calculate an C.V.

Rhizoctonia solani AG-1 = assay: Fungicidal activity against rice sheath blight (RSB) disease; conditions: 50 ppm, control value

Row | SMILES | C. V. (%) RCB [1] | C. V. (%) CGM (Botrytis cinerae) | C. V. (%) TLB (Phytophthora infestans) | C. V. (%), Fungicidal Activities against WLB at 10 ppm (Puccinia recondita) | C. V. (%) WLR (Puccinia recondita) | C. V. (%), Fungicidal activities against TLB at 10 ppm (Erysiphae graminis) | C. V. (%) BPM (Erysiphae graminis) | C. V. (%) RSB (Rhizoctonia solani AG-1) | C. V. (%) Fungicidal Activities against RCB at 10 ppm [1] | C. V. (%) Fungicidal Activities against RCB at 10 ppm (TABLE 6) [1]
1 | COC=C(C(=O)OC)c1ccccc1COc1cccc(OC(F)=C(c2cccc(C)c2)C(F)(F)F)c1 [Compound 49] | 95% | 41% | 0% | 95% | 100% | 100% | 100% | 50% |  | 
2 | CNC(=O)C(=COC)c1ccccc1COc1cccc(OC(F)=C(c2cccc(C)c2)C(F)(F)F)c1 [Compound 50] | 0% | 5% | 33% |  | 0% |  | 0% | 25% |  | 
3 | CON=C(C(=O)OC)c1ccccc1COc1cccc(OC(F)=C(c2cccc(C)c2)C(F)(F)F)c1 [Compound 51] | 41% | 0% | 3% | 90% | 100% | 98% | 100% | 60% |  | 
4 | CNC(=O)C(=NOC)c1ccccc1COc1cccc(OC(F)=C(c2cccc(C)c2)C(F)(F)F)c1 [Compound 52] | 95% | 28% | 55% | 100% | 100% | 100% | 100% | 90% | 95% | 95%
5 | COC=C(C(=O)OC)c1ccccc1COc1cccc(OC(F)=C(c2ccc(C)cc2)C(F)(F)F)c1 [Compound 53] | 100% | 55% | 0% | 99% | 100% | 96% | 100% | 50% |  | 
6 | CNC(=O)C(=COC)c1ccccc1COc1cccc(OC(F)=C(c2ccc(C)cc2)C(F)(F)F)c1 [Compound 54] | 16% | 9% | 20% |  | 16% |  | 41% | 20% |  | 
7 | CON=C(C(=O)OC)c1ccccc1COc1cccc(OC(F)=C(c2ccc(C)cc2)C(F)(F)F)c1 [Compound 55] | 100% | 0% | 85% |  | 100% | 97% | 100% | 30% | 94% | 94%
8 | CNC(=O)C(=NOC)c1ccccc1COc1cccc(OC(F)=C(c2ccc(C)cc2)C(F)(F)F)c1 [Compound 56] | 97% | 0% | 48% | 100% | 100% | 100% | 100% | 65% | 92% | 92%
9 | COC(=O)C(=CSC)c1ccccc1COc1cccc(OC(F)=C(c2ccc(C)cc2)C(F)(F)F)c1 [Compound 57] | 53% | 9% | 40% |  | 96% |  | 98% | 45% |  | 
10 | CCc1ccc(C(=C(F)Oc2cccc(OCc3ccccc3C(=COC)C(=O)OC)c2)C(F)(F)F)cc1 [Compound 58] | 90% | 25% | 0% | 95% | 100% | 99% | 100% | 40% |  | 
11 | CCc1ccc(C(=C(F)Oc2cccc(OCc3ccccc3C(=COC)C(=O)NC)c2)C(F)(F)F)cc1 [Compound 59] | 12% | 0% | 33% |  | 0% |  | 0% | 33% |  | 
12 | CCc1ccc(C(=C(F)Oc2cccc(OCc3ccccc3C(=NOC)C(=O)OC)c2)C(F)(F)F)cc1 [Compound 60] | 0% | 0% | 18% | 93% | 98% | 97% | 100% | 40% |  | 
13 | CCc1ccc(C(=C(F)Oc2cccc(OCc3ccccc3C(=NOC)C(=O)NC)c2)C(F)(F)F)cc1 [Compound 61] | 100% | 5% | 64% | 100% | 100% | 100% | 100% | 50% | 96% | 96%
14 | CCCCc1ccc(C(=C(F)Oc2cccc(OCc3ccccc3C(=COC)C(=O)OC)c2)C(F)(F)F)cc1 [Compound 62] | 0% | 28% | 3% |  | 93% |  | 98% | 35% |  | 
15 | COC=C(C(=O)OC)c1ccccc1COc1cccc(OC(F)=C(c2ccc(C)c(C)c2)C(F)(F)F)c1 [Compound 63] | 75% | 25% | 25% |  | 100% | 100% | 100% | 40% |  | 
16 | CNC(=O)/C(=C/OC)c1ccccc1COc1cccc(OC(F)=C(c2ccc(C)c(C)c2)C(F)(F)F)c1 [Compound 64] | 16% | 0% | 22% |  | 0% |  | 0% | 0% |  | 
17 | CO/N=C(/C(=O)OC)c1ccccc1COc1cccc(OC(F)=C(c2ccc(C)c(C)c2)C(F)(F)F)c1 [Compound 65] | 91% | 16% | 33% | 100% | 99% | 94% | 99% | 90% |  | 
18 | CNC(=O)/C(=N/OC)c1ccccc1COc1cccc(OC(F)=C(c2ccc(C)c(C)c2)C(F)(F)F)c1 [Compound 66] | 98% | 0% | 18% | 100% | 100% | 100% | 100% | 40% | 100% | 100%
19 | CO/C=C(/C(=O)OC)c1ccccc1COc1cccc(OC(F)=C(c2cc(C)cc(C)c2)C(F)(F)F)c1 [Compound 67] | 80% | 16% | 25% |  | 100% | 100% | 100% | 50% |  | 
20 | CNC(=O)/C(=C/OC)c1ccccc1COc1cccc(OC(F)=C(c2cc(C)cc(C)c2)C(F)(F)F)c1 [Compound 68] | 0% | 0% | 22% |  | 56% |  | 0% | 0% |  | 
21 | CNC(=O)/C(=N/OC)c1ccccc1COc1cccc(OC(F)=C(c2cc(C)cc(C)c2)C(F)(F)F)c1 [Compound 70] | 100% | 0% | 0% | 100% | 100% | 100% | 100% | 0% | 100% | 100%
22 | COC=C(C(=O)OC)c1ccccc1COc1cccc(OC(F)=C(c2cccc(OC)c2)C(F)(F)F)c1 [Compound 71] | 90% | 41% | 62% | 95% | 100% | 100% | 100% | 40% |  | 
23 | CNC(=O)C(=COC)c1ccccc1COc1cccc(OC(F)=C(c2cccc(OC)c2)C(F)(F)F)c1 [Compound 72] | 0% | 0% | 33% |  | 0% |  | 0% | 33% |  | 
